# Experimental data as given in patent publication US12077503B2, “Substituted cyclic amides and their use as herbicides” (FMC CORPORATION, priority 2015, dated 2024).
# What was measured:
# Format in all cases: in vivo
# [1] = test system: barnyardgrass (Echinochloa crus-galli); test: Test A preemergence; conditions: Echinochloa crus-galli, pre-emergence, 240 h
# In short: (§1)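 Preemergence directed soil spray on seeded pots, or postemergence application to plants 2–10 cm, one- to two-leaf. Solvent mixture non-phytotoxic, with surfactant. Scored ~10 d later, visually, 0–100 vs untreated.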
# [2] = test system: pigweed (Amaranthus retroflexus); test: Test A preemergence; conditions: Amaranthus retroflexus, pre-emergence, 240 h
# [3] = test system: ragweed (common ragweed, Ambrosia elatior); test: Test A preemergence; conditions: Ambrosia artemisiifolia, pre-emergence, 240 h
# In short: as §1
# Kochia (Kochia scoparia) [4] = test: Test A preemergence; conditions: Bassia scoparia, pre-emergence, 240 h
# In short: as §1
# [5] = test system: giant foxtail (Setaria faberii); test: Test A preemergence; conditions: Setaria faberi, pre-emergence, 240 h
# In short: as §1
# [6] = test system: ryegrass, Italian (Italian ryegrass, Lolium multiflorum); test: Test A preemergence; conditions: Lolium multiflorum, pre-emergence, 240 h
# In short: as §1
# [7] = test system: barnyardgrass (Echinochloa crus-galli); test: Test B flooded paddy test; conditions: Echinochloa crus-galli, Flood, 250 g ai/ha; scale of 0 to 100 where 0 is no effect and 100 is complete control; read-out: Barnyardgrass plant response rating
# In short: (§2)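 Plants at 2-leaf stage flooded to 3 cm above soil, with compounds applied directly to paddy water and that depth maintained. Plants kept in greenhouse 13–15 d. Visual rating versus controls on a 0 (no effect) to 100 (complete control) scale.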
# rice (Oryra sativa) = test: Test B flooded paddy test; conditions: Oryza sativa, Flood, 250 g ai/ha; scale of 0 to 100 where 0 is no effect and 100 is complete control; read-out: Rice plant response rating
# In short: as §2
# [8] = test system: ducksalad (Heteranthera limosa); test: Test B flooded paddy test; conditions: Heteranthera limosa, Flood, 250 g ai/ha; scale of 0 to 100 where 0 is no effect and 100 is complete control; read-out: Ducksalad plant response rating
# In short: as §2
# [9] = test system: sedge, umbrella (small-flower umbrella sedge, Cyperus difformis); test: Test B flooded paddy test; conditions: Cyperus difformis, Flood, 250 g ai/ha; scale of 0 to 100 where 0 is no effect and 100 is complete control; read-out: Sedge, Umbrella plant response rating
# In short: as §2
# [10] = test system: wheat (Triticum aestivum); test: Test A postemergence; conditions: Triticum aestivum, post-emergence, 240 h, 125 g ai/ha, Postemergence; visual injury after approximately 10 d; 0 to 100 scale where 0 is no effect and 100 is complete control; read-out: Plant response rating, Wheat
# In short: as §1
# [11] = test system: barnyardgrass (Echinochloa crus-galli); test: Test A postemergence; conditions: Echinochloa crus-galli, post-emergence, 240 h, 125 g ai/ha, Postemergence; visual injury after approximately 10 d; 0 to 100 scale where 0 is no effect and 100 is complete control; read-out: Plant response rating, Barnyardgrass
# In short: as §1
# [12] = test system: pigweed (Amaranthus retroflexus); test: Test A postemergence; conditions: Amaranthus retroflexus, post-emergence, 240 h, 125 g ai/ha, Postemergence; visual injury after approximately 10 d; 0 to 100 scale where 0 is no effect and 100 is complete control; read-out: Plant response rating, Pigweed
# In short: as §1
# [13] = test system: ragweed (common ragweed, Ambrosia elatior); test: Test A postemergence; conditions: Ambrosia artemisiifolia, post-emergence, 240 h, 125 g ai/ha, Postemergence; visual injury after approximately 10 d; 0 to 100 scale where 0 is no effect and 100 is complete control; read-out: Plant response rating, Ragweed
# In short: as §1
# [14] = test system: blackgrass (Alopecurus myosuroides); test: Test A postemergence; conditions: Alopecurus myosuroides, post-emergence, 240 h, 125 g ai/ha, Postemergence; visual injury after approximately 10 d; 0 to 100 scale where 0 is no effect and 100 is complete control; read-out: Plant response rating, Blackgrass
# In short: as §1
# [15] = test system: Galium (catchweed bedstraw, Galium aparine); test: Test A postemergence; conditions: Galium, post-emergence, 240 h, 125 g ai/ha, Postemergence; visual injury after approximately 10 d; 0 to 100 scale where 0 is no effect and 100 is complete control; read-out: Plant response rating, Galium
# In short: as §1
# corn (Zea mays) = test: Test A postemergence; conditions: Zea mays, post-emergence, 240 h, 125 g ai/ha, Postemergence; visual injury after approximately 10 d; 0 to 100 scale where 0 is no effect and 100 is complete control
# In short: as §1
# Kochia (Kochia scoparia) [16] = test: Test A postemergence; conditions: Bassia scoparia, post-emergence, 240 h, 125 g ai/ha, Postemergence; visual injury after approximately 10 d; 0 to 100 scale where 0 is no effect and 100 is complete control; read-out: Plant response rating, Kochia
# In short: as §1
# [17] = test system: giant foxtail (Setaria faberii); test: Test A postemergence; conditions: Setaria faberi, post-emergence, 240 h, 125 g ai/ha, Postemergence; visual injury after approximately 10 d; 0 to 100 scale where 0 is no effect and 100 is complete control; read-out: Plant response rating, Foxtail, Giant
# In short: as §1
# [18] = test system: ryegrass, Italian (Italian ryegrass, Lolium multiflorum); test: Test A postemergence; conditions: Lolium multiflorum, post-emergence, 240 h, 125 g ai/ha, Postemergence; visual injury after approximately 10 d; 0 to 100 scale where 0 is no effect and 100 is complete control; read-out: Plant response rating, Ryegrass, Italian
# In short: as §1
smiles,measurement,setting,value
COc1ccc([C@H]2CN(C)C(=O)[C@@H]2C(=O)Nc2ccccc2F)cc1C(F)(F)F [Compound 984],pest or weed control at 125 g/ha,"[1]; 125 g ai/ha, Preemergence, visual injury rating after approximately 10 d, read-out: Barnyardgrass plant response rating (0 to 100 scale, 0 is no effect, 100 is complete control)",100%
same,pest or weed control at 500 g/ha,"[1]; 500 g ai/ha, preemergence, visual injury rating about 10 d after treatment, 0 to 100 scale (0 no effect, 100 complete control), read-out: Barnyardgrass plant response rating",100%
same,pest or weed control at 125 g/ha,"[2]; 125 g ai/ha, Preemergence, visual injury rating after approximately 10 d, read-out: Pigweed plant response rating (0 to 100 scale, 0 is no effect, 100 is complete control)",40%
same,pest or weed control at 500 g/ha,"[2]; 500 g ai/ha, preemergence, visual injury rating about 10 d after treatment, 0 to 100 scale (0 no effect, 100 complete control), read-out: Pigweed plant response rating",60%
same,pest or weed control at 125 g/ha,"[3]; 125 g ai/ha, Preemergence, visual injury rating after approximately 10 d, read-out: Ragweed plant response rating (0 to 100 scale, 0 is no effect, 100 is complete control)",0%
same,pest or weed control at 500 g/ha,"[3]; 500 g ai/ha, preemergence, visual injury rating about 10 d after treatment, 0 to 100 scale (0 no effect, 100 complete control), read-out: Ragweed plant response rating",30%
same,pest or weed control at 125 g/ha,"Kochia (Kochia scoparia) [4]; 125 g ai/ha, Preemergence, visual injury rating after approximately 10 d, read-out: Kochia plant response rating (0 to 100 scale, 0 is no effect, 100 is complete control)",90%
same,pest or weed control at 500 g/ha,"Kochia (Kochia scoparia) [4]; 500 g ai/ha, preemergence, visual injury rating about 10 d after treatment, 0 to 100 scale (0 no effect, 100 complete control), read-out: Kochia plant response rating",90%
same,pest or weed control at 125 g/ha,"[5]; 125 g ai/ha, Preemergence, visual injury rating after approximately 10 d, read-out: Foxtail, Giant plant response rating (0 to 100 scale, 0 is no effect, 100 is complete control)",100%
same,pest or weed control at 500 g/ha,"[5]; 500 g ai/ha, preemergence, visual injury rating about 10 d after treatment, 0 to 100 scale (0 no effect, 100 complete control), read-out: Foxtail, Giant plant response rating",100%
same,pest or weed control at 125 g/ha,"[6]; 125 g ai/ha, Preemergence, visual injury rating after approximately 10 d, read-out: Ryegrass, Italian plant response rating (0 to 100 scale, 0 is no effect, 100 is complete control)",70%
same,pest or weed control at 500 g/ha,"[6]; 500 g ai/ha, preemergence, visual injury rating about 10 d after treatment, 0 to 100 scale (0 no effect, 100 complete control), read-out: Ryegrass, Italian plant response rating",30%
same,pest or weed control at 250 g/ha,[7],55%
same,pest or weed control at 250 g/ha,rice (Oryra sativa),15%
same,pest or weed control at 250 g/ha,[8],85%
same,pest or weed control at 250 g/ha,[9],0%
same,plant injury at 125 g/ha,[10],20%
same,pest or weed control at 125 g/ha,[11],100%
same,pest or weed control at 125 g/ha,[12],0%
same,pest or weed control at 125 g/ha,[13],0%
same,pest or weed control at 125 g/ha,[14],30%
same,pest or weed control at 125 g/ha,[15],30%
same,"Corn plant response rating (crop injury, 0 = no effect, 100 = complete kill) at 125 g/ha",corn (Zea mays),80%
same,pest or weed control at 125 g/ha,Kochia (Kochia scoparia) [16],50%
same,pest or weed control at 125 g/ha,[17],90%
same,pest or weed control at 125 g/ha,[18],20%
